# Test results reported in article PMC3629139, “A Powerful Molecular Engineering Tool Provided Efficient Chlamydomonas Mutants as Bio-Sensing Elements for Herbicides Detection” (PLoS ONE, 2013).
# Columns and labels:
# Experiment in all cases: chlorophyll a fluorescence induction (OJIP), inhibition of 1-VJ (QA to QB electron transfer) in living algal cells
# Assay type in all cases: cell-based
# Conditions in all cases: read-out: Atrazine / I50×10^-7 M / (±SE)
# [1] = target: T1, photosystem II (PSII) D1 protein (Chlamydomonas reinhardtii, UniProt P07753, I281T)
# T1 construct: gene psbA; full-length D1 from intronless psbA in the chloroplast, assembled in native PSII (with D2 and other subunits) in living algal cells; D1 mutants by ep-PCR of Ala153-Ala294 region and biolistic transformation of Del1
# Description: (§1) chlorophyll a fluorescence induction (OJIP), inhibition of 1-VJ (QA to QB electron transfer) in living algal cells on photosystem II (PSII) D1 protein
# [2] = target: T2, photosystem II (PSII) D1 protein (Chlamydomonas reinhardtii, UniProt P07753, M172L)
# T2 construct: gene psbA; full-length D1 from intronless psbA in the chloroplast, assembled in native PSII (with D2 and other subunits) in living algal cells; D1 mutants by ep-PCR of Ala153-Ala294 region and biolistic transformation of Del1
# Description: as §1
# [3] = target: T3, photosystem II (PSII) D1 protein (Chlamydomonas reinhardtii, UniProt P07753, G207S)
# T3 construct: gene psbA; full-length D1 from intronless psbA in the chloroplast, assembled in native PSII (with D2 and other subunits) in living algal cells; D1 mutants by ep-PCR of Ala153-Ala294 region and biolistic transformation of Del1
# Description: as §1
# [4] = target: T4, photosystem II (PSII) D1 protein (Chlamydomonas reinhardtii, UniProt P07753, L200I)
# T4 construct: gene psbA; full-length D1 from intronless psbA in the chloroplast, assembled in native PSII (with D2 and other subunits) in living algal cells; D1 mutants by ep-PCR of Ala153-Ala294 region and biolistic transformation of Del1
# Description: as §1
# [5] = target: T5, photosystem II (PSII) D1 protein (Chlamydomonas reinhardtii, UniProt P07753, F211S/P162S)
# T5 construct: gene psbA; full-length D1 from intronless psbA in the chloroplast, assembled in native PSII (with D2 and other subunits) in living algal cells; D1 mutants by ep-PCR of Ala153-Ala294 region and biolistic transformation of Del1
# Description: as §1
# [6] = target: T6, photosystem II (PSII) D1 protein (Chlamydomonas reinhardtii, UniProt P07753)
# T6 construct: gene psbA; full-length D1 from intronless psbA in the chloroplast, assembled in native PSII (with D2 and other subunits) in living algal cells; D1 mutants by ep-PCR of Ala153-Ala294 region and biolistic transformation of Del1
# Description: as §1
smiles,measurement,setting,value
"CCNc1nc(Cl)nc(NC(C)C)n1 [Atrazine, 2-chloro-4-(ethylamine)-6-(isopropylamine)-s-triazine]",IC50,[1],200 nM
same,IC50,[2],220 nM
same,IC50,[3],210 nM
same,IC50,[4],180 nM
same,IC50,[5],1970 nM
same,IC50,[6],240 nM
